Values quoted from earlier work, collected in patent US6756056B2, “Treatment of Parkinson's disease and related disorders by novel formulations of the combination carbidopa-levodopa” (priority 1997, dated 2004).

Conditions: doses of 400 mg per day

## C[C@@](Cc1ccc(O)c(O)c1)(NN)C(=O)O [carbidopa]
  Adverse effects: apparently devoid of adverse effects
